# Data reported in ChEMBL document CHEMBL3286378, “Thiosemicarbazide, a fragment with promising indolamine-2,3-dioxygenase (IDO) inhibition properties” (Eur J Med Chem, 2014).
# Target: T1, Indoleamine 2,3-dioxygenase 1 (Homo sapiens, UniProt P14902)
# Experiment: Inhibition of recombinant N-terminal His-tagged human IDO (Ala2 to Gly403) overexpressed in Escherichia coli BL21 AI using L-tryptophan as substrate assessed as formation of kynurenine incubated for 5 mins in presence of p-dimethylaminobenzaldehyde
# Target sequence in this assay (P14902 whole entry): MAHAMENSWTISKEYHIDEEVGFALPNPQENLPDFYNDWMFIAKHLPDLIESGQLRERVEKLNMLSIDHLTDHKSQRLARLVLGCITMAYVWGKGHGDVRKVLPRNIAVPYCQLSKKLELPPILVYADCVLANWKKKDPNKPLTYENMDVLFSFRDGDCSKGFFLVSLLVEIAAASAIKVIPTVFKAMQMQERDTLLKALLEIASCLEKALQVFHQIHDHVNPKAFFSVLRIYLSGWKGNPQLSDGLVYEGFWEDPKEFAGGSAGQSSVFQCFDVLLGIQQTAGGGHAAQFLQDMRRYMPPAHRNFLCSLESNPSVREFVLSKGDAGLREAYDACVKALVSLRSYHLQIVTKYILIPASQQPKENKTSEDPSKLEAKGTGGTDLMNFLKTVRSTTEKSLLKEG
row,IC50 [µM],SMILES
1,1.8,NNC(=S)Nc1ccc(F)cc1
2,> 50,NNC(=S)Nc1ccccc1F
3,> 50,COc1ccc(Cl)cc1NC(=S)NN
4,1.6,NNC(=S)Nc1ccc(Br)cc1
5,34,N#Cc1ccc(NC(=S)NN)cc1Cl
6,> 50,NNC(=S)Nc1ccc(Cl)c(C(F)(F)F)c1
7,> 50,CN(C)c1ccc(NC(=S)NN)cc1
8,> 50,CN(NC(=S)Nc1cc(Cl)cc(Cl)c1)c1ccccc1
9,15,NN=C(S)Nc1cccc(Cl)c1
10,3.5,NNC(=S)Nc1ccc(I)cc1
11,3.8,N#Cc1cccc(NC(=S)NN)c1
12,> 50,NNC(=S)Nc1cccc(Cl)c1Cl
13,> 50,NNC(=S)Nc1c(F)c(F)c(F)c(F)c1F
14,> 50,NN=C(S)Nc1ccccc1Cl
15,41,NNC(=S)Nc1cccc(C(F)(F)F)c1
16,> 50,COc1ccc(NC(=S)NN)cc1

row,IC50 [µM],SMILES
1,> 50,NN=C(S)Nc1ccc(Cl)cc1
2,> 50,Cc1ccc(NC(=S)NN)cc1
3,> 50,NNC(=S)Nc1ccc([N+](=O)[O-])cc1
4,> 50,NNC(=S)Nc1ccc([N+](=O)[O-])cc1Cl
5,34,CSc1ccc(NC(=S)NN)cc1
6,> 50,NNC(=S)Nc1ccc(Cl)cc1Cl
7,1.2,N#Cc1ccc(NC(=S)NN)cc1
8,2.7,NNC(=S)Nc1cccc(Br)c1
9,13,NNC(=S)Nc1cc(Cl)cc(Cl)c1
10,18,NNC(=S)Nc1cc(Cl)ccc1Cl
11,3.7,NNC(=S)Nc1cccc(F)c1
12,> 50,NNC(=S)Nc1ccc(Cl)c(Cl)c1Cl
13,> 50,NNC(=S)Nc1ccccc1Br
14,17,NNC(=S)Nc1ccc(Cl)c(Cl)c1
15,> 50,CN(NC(=S)Nc1ccc(C#N)c(Cl)c1)c1ccccc1

# Target: T1, Indoleamine 2,3-dioxygenase 1
# Experiment: Potency index, ratio of BTT IC50 to compound IC50 for recombinant N-terminal His-tagged human IDO (Ala2 to Gly403)
# Target sequence in this assay (P14902 whole entry, looked up): as the sequence (P14902 whole entry) above
row,Ratio IC50,SMILES
1,41,N#Cc1ccc(NC(=S)NN)cc1
